# According to patent publication US20230416329A1, “A PEPTIDE WITH DISULFIDE BONDS AND INHIBITORY ACTIVITY AGAINST SERINE PROTEASES, DERIVED HYBRID PEPTIDES THEREOF, AND USES THEREOF” (INSTITUTE OF MATERIA MEDICA , CHINESE ACADEMY OF MEDICAL …, priority 2020, published 2023):
# Like-named read-outs stand apart in the source and are kept apart here. Bridge positions count the residues as written; N and C are the ends. Peptide text beside a SMILES is read from it.
# Target: T1, bovine trypsin (Bos taurus, UniProt P00760)
# T1 sequence (P00760 24-246): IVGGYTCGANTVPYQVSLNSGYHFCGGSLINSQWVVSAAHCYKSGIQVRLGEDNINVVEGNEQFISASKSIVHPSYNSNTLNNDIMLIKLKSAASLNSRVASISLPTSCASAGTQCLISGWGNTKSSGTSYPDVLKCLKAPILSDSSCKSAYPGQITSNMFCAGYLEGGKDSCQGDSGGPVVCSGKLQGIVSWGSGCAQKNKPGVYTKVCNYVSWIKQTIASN
# Experiment: Trypsin inhibitory activity of peptides (BApNA hydrolysis, OD405; IC50, Ki, residual activity)
# Assay type: biochemical
# Method: The substrates N-succinyl-Ala-Ala-Pro-Phe-p-nitroaniline (AAPFpNA), Nα—Benzoyl-L-arginine-4-nitroaniline hydrochloride (BApNA) and N-succinyl-[…] (AAApNA) are used in competitive binding reaction to determine the inhibitory activities against α-chymotrypsin, bovine trypsin, and porcine pancreatic elastase, respectively. Experiments for α-chymotrypsin and bovine trypsin inhibition were measured in 20 mM CaCl2, 50 mM Tris-HCl buffer (pH 7.8), and that for porcine elastase inhibition was measured in 50 mM Tris-HCl buffer (pH 8.0). The concentration of the peptide was measured using optical density (OD) at 280 nm. The Michaelis constant (Km) of the enzyme hydrolysis substrate is calculated from the initial rate of substrate hydrolysis at 405 nm. The absorbance value of the substrate was measured at 405 nm after complete hydrolysis. All data were processed using nonlinear regression.
# • (1) Added 200 μL of reaction buffer (20 mM CaCl2 and 50 mM Tris-HCl, pH 7.8) into the 96-well plate, and preheated at 37° C. for 15 min. Then added 5 μL of different concentrations of substrates (p-Nitroanilide, pNA, 0.5% in DMSO), and mixed by centrifugation at 500 rpm for 1 min. […] The experiment was performed in triplicate. The standard curve was obtained by plotting the OD405 nm value with pNA concentration. • (2) Added 190 μL of reaction buffer (20 mM CaCl2 and 50 mM Tris-HCl, pH 7.8) and 10 μL of 1 μM trypsin into the 96-well plate, and preheated at 37° C. for 15 min. Then added 5 μL of different concentrations of substrates (BApNA, 0.5% in DMSO) and mixed by centrifugation at 500 rpm for 1 min. […] The experiment was performed in triplicate. The corresponding curve was obtained by plotting the OD405 nm value with time. Divided the slope of the curve by the slope of the standard curve and the enzyme concentration to obtain the initial velocity V0 (mM/(min*mM protein). Plotted the initial velocity V0 with the concentration of substrate BApNA using Prism software, and the Michaelis constant Km value of trypsin hydrolyzing BApNA was obtained.
# • (1) Added a total 190 μL of reaction buffer (20 mM CaCl2 and 50 mM Tris-HCl, pH 7.8) along with different concentrations of anti-trypsin peptides (BTs) into the pre-cooled 96-well plate, followed by preheating at 37° C., and spined down at 500 rpm for 5 min. Next added 10 μL of 1 μM trypsin, incubated at 37° C., and then spined down at 500 rpm for 10 min. Finally, added 5 μL of 50 mM BApNA, and mixed by centrifugation at 500 rpm for 1 min. The plate was incubated at 37° C. for 260 min, and the absorbance value at 405 nm was measured. The experiment was performed in triplicate. The blank control only contained the reaction buffer and the substrate as the minimum absorption value (Min OD405 nm). The negative control only contained the reaction buffer, the enzyme and the substrate as the maximum absorption value (Max OD405 nm). • (2) In the reaction system of 205 μL, the final concentrations of trypsin and BApNA were 50 nM and 1.22 mM, respectively. • (3) Data statistics
# Residual activity of the enzyme (%)=(1−(Max OD405 nm−Sample OD405 nm)/(Max OD405 nm−Min OD405 nm))*100
# Plotted the residual activity of the enzyme with […] to obtain the half inhibitory concentration (IC50) of BTs scaffold against trypsin. Then, substituted it into the formula Ki=IC50/(1+S/Km) (S, IC50 and Km were substrate concentration, half inhibitory concentration and Michaelis constant, respectively) to obtain the inhibition constant Ki of BTs scaffold against trypsin.
# [1] = Ki=IC50/(1+S/Km), Km 0.33 mM, read-out: Ki
smiles,measurement,setting,value
CC[C@H](C)[C@@H]1NC(=O)[C@H](C)NC(=O)[C@@H]2CCCN2C(=O)[C@H]([C@@H](C)CC)NC(=O)[C@H](CO)NC(=O)[C@H](CCCCN)NC(=O)[C@H]([C@@H](C)O)NC(=O)[C@H](C)NC(=O)[C@H](CCCNC(=N)N)NC(=O)CNC(=O)[C@@H](N)CSSC[C@@H](C(=O)N[C@@H](Cc2ccccc2)C(=O)O)NC1=O [BT10] (H-CGRATKSIPAICF-OH; disulfide 1-12),inhibitory activity against trypsin (in words),,excellent trypsin inhibitory activities
same,Residual trypsin activity,peptide 0.00098 μM,99.7 ± 0.6%
same,Residual trypsin activity,peptide 0.00488 μM,99.8 ± 1.8%
same,Residual trypsin activity,peptide 0.0098 μM,95.5 ± 1.1%
same,Residual trypsin activity,peptide 0.098 μM,55.6 ± 2.3%
same,Residual trypsin activity,peptide 0.195 μM,17.2 ± 3.4%
same,Residual trypsin activity,peptide 0.488 μM,1.0 ± 0.1%
same,Residual trypsin activity,peptide 0.7317 μM,0.2 ± 0.1%
same,Residual trypsin activity,peptide 0.98 μM,−0.1 ± 0.1%
same,Ki,read-out: inhibition constant (Ki) towards trypsin,20 nM
same,IC50,"trypsin 50 nM, BApNA 1.22 mM, read-out: IC50",110 nM
CC[C@H](C)[C@@H]1NC(=O)[C@@H]2CCCN2C(=O)[C@@H]2CCCN2C(=O)[C@H]([C@@H](C)CC)NC(=O)[C@H](CO)NC(=O)[C@H](CCCCN)NC(=O)[C@H]([C@@H](C)O)NC(=O)[C@H](C)NC(=O)[C@H](CCCNC(=N)N)NC(=O)CNC(=O)[C@@H](N)CSSC[C@@H](C(=O)O)NC(=O)[C@H](Cc2ccccc2)NC(=O)[C@H](C)NC1=O [BT11] (H-CGRATKSIPPIAFC-OH; disulfide 1-14; N-terminus and C-terminus assumed),inhibitory activity against trypsin (in words),,still maintained good inhibitory activity against trypsin
same,Residual trypsin activity,peptide 0.488 μM,100.2 ± 3.7%
same,Residual trypsin activity,peptide 0.7317 μM,102.4 ± 4.2%
same,Residual trypsin activity,peptide 0.98 μM,101.5 ± 5.1%
same,Residual trypsin activity,peptide 1.561 μM,79.3 ± 1.0%
same,Residual trypsin activity,peptide 1.95 μM,75.8 ± 4.6%
same,Residual trypsin activity,peptide 2.93 μM,6.2 ± 3.1%
same,Residual trypsin activity,peptide 3.90 μM,4.1 ± 1.0%
same,Residual trypsin activity,peptide 4.88 μM,1.4 ± 0.3%
CC[C@H](C)[C@@H]1NC(=O)[C@H](CO)NC(=O)[C@H](CCCCN)NC(=O)[C@H]([C@@H](C)O)NC(=O)[C@H](C)NC(=O)[C@H](CCCNC(=N)N)NC(=O)CNC(=O)[C@@H](N)CSSC[C@@H](C(=O)N[C@@H](Cc2ccc(O)cc2)C(=O)O)NC(=O)[C@H](CCC(N)=O)NC(=O)[C@@H]2CCCN2C(=O)[C@@H]2CCCN2C1=O [BT12] (H-CGRATKSIPPQCY-OH; disulfide 1-12; N-terminus and C-terminus assumed),inhibitory activity against trypsin (in words),,significant impact on their anti-trypsisn activities
same,Residual trypsin activity,peptide 0.0488 μM,100.5 ± 2.0%
same,Residual trypsin activity,peptide 0.2439 μM,106.5 ± 3.4%
same,Residual trypsin activity,peptide 0.98 μM,107.9 ± 1.4%
same,Residual trypsin activity,peptide 3.90 μM,68.3 ± 0.1%
same,Residual trypsin activity,peptide 5.85 μM,24.0 ± 1.2%
same,Residual trypsin activity,peptide 9.76 μM,0.7 ± 0.1%
same,Residual trypsin activity,peptide 14.63 μM,0.3 ± 0.1%
same,Residual trypsin activity,peptide 19.51 μM,−0.2 ± 0.1%
CC[C@H](C)[C@@H]1NC(=O)[C@@H]2CCCN2C(=O)[C@@H]2CCCN2C(=O)[C@H]([C@@H](C)CC)NC(=O)[C@H](CO)NC(=O)[C@H](CCCCN)NC(=O)[C@H]([C@@H](C)O)NC(=O)[C@H](C)NC(=O)[C@H](CCCNC(=N)N)NC(=O)CNC(=O)[C@@H](N)CSSC[C@@H](C(=O)O)NC(=O)[C@H](C)NC1=O [BT13] (H-CGRATKSIPPIAC-OH; disulfide 1-13; N-terminus and C-terminus assumed),inhibitory activity against trypsin (in words),,still maintained good inhibitory activity against trypsin
CC(C)C[C@@H]1NC(=O)[C@H](CO)NC(=O)[C@H](CCCCN)NC(=O)[C@H]([C@@H](C)O)NC(=O)[C@H](C)NC(=O)[C@H](CCCNC(=N)N)NC(=O)CNC(=O)[C@@H](N)CSSC[C@@H](C(=O)N[C@@H](Cc2ccccc2)C(=O)O)NC(=O)[C@H](C)NC(=O)[C@@H]2CCCN2C(=O)[C@@H]2CCCN2C1=O [BT14] (H-CGRATKSLPPACF-OH; disulfide 1-12; N-terminus and C-terminus assumed),inhibitory activity against trypsin (in words),,reduced their anti-trypsin activities
CC[C@H](C)[C@@H]1NC(=O)[C@H](CO)NC(=O)[C@H](CCCNC(=N)N)NC(=O)[C@H]([C@@H](C)O)NC(=O)[C@H](C)NC(=O)[C@H](CCCNC(=N)N)NC(=O)CNC(=O)[C@@H](N)CSSC[C@@H](C(=O)N[C@@H](Cc2ccccc2)C(=O)O)NC(=O)[C@H](C)NC(=O)[C@@H]2CCCN2C(=O)[C@@H]2CCCN2C1=O [BT15] (H-CGRATRSIPPACF-OH; disulfide 1-12; N-terminus and C-terminus assumed),inhibitory activity against trypsin (in words),,significant impact on their anti-trypsisn activities
CC[C@H](C)[C@@H]1NC(=O)[C@H](C)NC(=O)[C@@H]2CCCN2C(=O)[C@H](CC(C)C)NC(=O)[C@H](CO)NC(=O)[C@H](CCCCN)NC(=O)[C@H]([C@@H](C)O)NC(=O)[C@H](C)NC(=O)[C@H](CCCNC(=N)N)NC(=O)CNC(=O)[C@@H](N)CSSC[C@@H](C(=O)N[C@@H](Cc2ccccc2)C(=O)O)NC1=O [BT16] (H-CGRATKSLPAICF-OH; disulfide 1-12; C-terminus assumed),inhibitory activity against trypsin (in words),,reduced their anti-trypsin activities
same,Ki,[1],190 nM
same,inhibitory activity against trypsin (in words),listed as SEQ ID NO: 16,excellent trypsin inhibitory activities
same,Residual trypsin activity,peptide 0.00488 μM,95.4 ± 4.3%
same,Residual trypsin activity,peptide 0.0098 μM,96.1 ± 0.6%
same,Residual trypsin activity,peptide 0.0195 μM,101.7 ± 1.2%
same,Residual trypsin activity,peptide 0.390 μM,88.4 ± 2.0%
same,Residual trypsin activity,peptide 0.780 μM,59.7 ± 3.2%
same,Residual trypsin activity,peptide 0.98 μM,42.2 ± 3.3%
same,Residual trypsin activity,peptide 2.439 μM,0.8 ± 0.1%
same,Residual trypsin activity,peptide 4.88 μM,0.0 ± 0.2%
CC[C@H](C)[C@@H]1NC(=O)[C@@H]2CCCN2C(=O)[C@@H]2CCCN2C(=O)[C@H]([C@@H](C)CC)NC(=O)[C@H](CO)NC(=O)[C@H](CCCNC(=N)N)NC(=O)[C@H]([C@@H](C)O)NC(=O)[C@H](C)NC(=O)[C@H](CCCNC(=N)N)NC(=O)CNC(=O)[C@@H](N)CSSC[C@@H](C(=O)N[C@@H](Cc2ccccc2)C(=O)O)NC1=O [BT17] (H-CGRATRSIPPICF-OH; disulfide 1-12; C-terminus assumed),inhibitory activity against trypsin (in words),,excellent trypsin inhibitory activities
same,Ki,[1],120 nM
same,Residual trypsin activity,peptide 0.00098 μM,97.9 ± 0.8%
same,Residual trypsin activity,peptide 0.0098 μM,97.5 ± 0.7%
same,Residual trypsin activity,peptide 0.098 μM,93.6 ± 4.5%
same,Residual trypsin activity,peptide 0.488 μM,61.9 ± 3.0%
same,Residual trypsin activity,peptide 0.7317 μM,30.0 ± 5.3%
same,Residual trypsin activity,peptide 0.98 μM,1.5 ± 0.3%
same,Residual trypsin activity,peptide 9.76 μM,0.1 ± 0.0%
same,Residual trypsin activity,peptide 97.56 μM,0.1 ± 0.0%
same,decrease in inhibitory activity compared to BT9,trypsin,~12 fold
CC[C@H](C)[C@@H]1NC(=O)[C@@H]2CCCN2C(=O)[C@@H]2CCCN2C(=O)[C@H]([C@@H](C)CC)NC(=O)[C@H](CO)NC(=O)[C@H](CCCNC(=N)N)NC(=O)[C@H]([C@@H](C)O)NC(=O)[C@H](C)NC(=O)[C@H](CCCNC(=N)N)NC(=O)CNC(=O)[C@@H](N)CSSC[C@@H](C(=O)N[C@@H](Cc2ccc(O)cc2)C(=O)O)NC1=O [BT18] (H-CGRATRSIPPICY-OH; disulfide 1-12; N-terminus and C-terminus assumed),inhibitory activity against trypsin (in words),,significant impact on their anti-trypsisn activities
